Data from patent US20050123536A1, “Treatment of immunological disorders using anti-dc30 antibodies” (priority 2001, published 2005).
Where “and” joins values, the source holds several entries; their conditions need not be identical. Equal entries are not always repeated. Entries after “also recorded” stand apart in the source; their conditions may differ. One block for each molecule: values may come before it.

How the values were obtained:
[1] = biological target: CD30 (human) (UniProt P28908); assay: cell-based or functional assay
[2] = biological target: CD3 (human); assay: cell-based or functional assay
[3] = test system: activated naïve T lymphocytes (CD45RO-); assay: Proliferation of activated naïve T lymphocytes, 3H-TdR; format: cell-based, human; details: compared to memory T lymphocytes or T lymphocyte clones
Procedure: As PBMC are made up of different subsets of lymphocytes, the response of one cellular subset toward cAC10 ADCs may easily be masked by other subsets. In order to examine this possibility, total T lymphocytes, naïve and memory T lymphocytes were enriched from PBMC by negative immuno-selection. Briefly, PBMCs were incubated with one of the following antibody cocktails, containing saturating quantities of antibodies, at a final concentration of 20×10^6 cells/ml on ice for 20 minutes. To enrich for total T lymphocytes, the antibody cocktail contained anti-CD 14 (BD PharMingen), anti-CD16 (BD PharMingen), and anti-CD20 (BD PharMingen). To enrich for naïve T lymphocytes (CD45RO^−), the antibody cocktail contained anti-CD14, anti-CD16, anti-CD20, and anti-CD45RO (BD PharMingen). To enrich for memory T lymphocytes (CD45RA^−), the antibody cocktail contained, anti-CD14, anti-CD16, anti-CD20, and anti-CD45RA (BD PharMingen). […]
Activation-induced expression of CD30 on different T cell subsets was then examined. […] After 72 hours of incubation, the expression of CD30 on both CD4 and CDS cells in the different cultures was determined by flow cytometry, also as outlined in Example 6. Expression of CD30 was detected on both CD4 and CDS cells regardless of whether the starting population was total, naïve, or memory T lymphocytes (FIG. 12). […]

[4] = test system: Jurkat T cells; assay: Jurkat T cell proliferation, 3H-TdR incorporation, anti-CD30 mAbs with or without secondary cross-linking Ab; format: cell-based, human; details: for inhibition of Jurkat T cell proliferation by immobilized mAb: mAb immobilized onto TC wells, data not shown; for inhibition of thymidine incorporation in Jurkat cells: secondary cross-linking antibody used
Procedure: FIG. 2. […] Proliferation was assessed by a pulse of tritiated thymidine (^3H-TdR) during the last 4 hours of a 72 hour incubation.
FIG. 3. […] Proliferation was assessed by a pulse of ^3H-TdR during the last 4 hours of a 48-hour incubation.
The effect of signaling through CD30 by anti-CD30 on the proliferation of Jurkat T cells was assessed by tritiated thymidine (^3H-TdR) incorporation assays. Jurkat cells were treated with soluble anti-CD30 in graded doses or anti-CD30 cross-linked by a secondary cross-linking antibody (Ab). […] Final ratios of 1:2.5, 1:5, and 1:10 between the primary mAbs and secondary cross-linking antibodies were used. Antibody cocktails were allowed to incubate at room temperature for 15 minutes. Serial dilutions of these antibody cocktails in culture medium were then prepared to achieve the desired final concentrations. One hundred ill of antibody cocktails were then mixed with 100 μl Jurkat cell suspension containing 5000 cells in 96-well tissue culture (TC) plates. Cells were incubated with the antibody cocktails for 44 hours before a 4-hour pulse with 1 μCi of ^3H-TdR. Cells were then harvested onto filters, and incorporated tritiated thymidine was measured by scintillation counting. Thymidine incorporation values obtained from the treated cells were then compared to the untreated control cultures.

[5] = test system: Jurkat T cells; assay: Cell cycle disposition, DNA synthesis and DNA fragmentation (apoptosis) by PI and anti-BrdU staining; format: cell-based, human; details: for DNA fragmentation in Jurkat cells: mAb cross-linked by goat anti-mouse IgG Fc, after 24 and 48 hours
Procedure: The relationship between cell cycle status and DNA replication in Jurkat cells treated with cross-linked anti-CD30 in Abs was further investigated. […] The antibody cocktails were allowed to incubate at room temperature for 15 minutes. Serial 1:10 dilutions of these antibody cocktails in culture medium were then prepared. One ml of antibody cocktails was then mixed with 1 ml of Jurkat cell suspension containing 0.25×10^6 cells in 12-well TC plates.
After 24 or 48 hours of incubation, cells were harvested by centrifugation and resuspended in 2 ml of fresh medium equilibrated at 37° C. Bromodeoxyuridine (BrdU) (Sigma, St. Louis, Mo.) was used to label cells that were actively synthesizing DNA. Twenty μl of 1 mM BrdU dissolved in water were added to the cell suspension, and the incubation continued at 37° C. for 15 minutes. Cells were then spun down, washed once with PBS, and resuspended in 0.5 ml of ice-cold PBS. One ml of 100% ethanol at −20° C. was added drop-wise to the cell suspension for cell fixation. After fixation at 4 C for 30 minutes, fixed cells were spun down. The cell pellets were resuspended in 1 ml of 2 M HCl with 0.5% Triton X-100 (Sigma) and incubated for 30 minutes at room temperature before cells were spun down. One ml of 0.1 M Na2B4O7 at pH 8.5 was used to resuspend the cell pellets and to neutralize the acid for 10 minutes at room temperature. Cells were then pelleted by centrifugation and washed once with PBS containing 0.5% Tween 20 (Sigma) and 1% BSA. […] Cells were then washed twice with PBS, 0.5% Tween 20, 1% BSA, and then resuspended in 0.5 ml of PBS containing 5 μg/ml of propidium iodide (PI) (Sigma) to quantify DNA contents in cells. […]
Jurkat T cells were treated with either anti-CD30 mAb alone, anti-CD3 mAb, alone, or a combination of anti-CD30 and anti-CD3 mAbs. […] Cell cycle distribution was determined by BrdU and PI staining as in FIG. 4.

[6] = test system: Jurkat T cells; assay: Apoptosis by Annexin V binding and permeability to PI; format: cell-based, human; details: primary mAb 2 μg/ml, 10-fold excess GAM
Procedure: FIG. 7. […] Anti-CD30 and anti-CD3 mAbs were used at 2 μg/ml. GAM secondary Ab was used in 10-fold excess to cross-link the primary mAbs. Binding of FITC-conjugated Annexin V enabled the detection of cells undergoing apoptosis. Membrane permeability to PI was used to detect dead cells that had lost membrane integrity. In the figure, Annexin V^−/PI^− events represent live cells (lower left quadrant), Annexin V^+/PI^− events represent apoptotic cells (lower right quadrant), and Annexin V^+/PI^+ events represent dead cells (upper right quadrant). Numbers outside of the density plots denote the percentage of cells present in each of the quadrants.
Primary mAbs were used at a final concentration of 2 μg/ml. A 10-fold excess of GA-M antibody was used to cross-link the primary antibodies. After an incubation of 15 minutes at room temperature, antibody cocktails were added to Jurkat cells. At the times designated in FIG. 7, percentages of apoptotic and dead cells in the cultures were determined by Annexin V binding and permeability to PI using the Annexin V-FITC Apoptosis Detection Kit I (BD PharMingen, San Diego, Calif.) according to the manufacturer's instruction. […]

[7] = test system: T lymphocyte clones 40E10 and 40H7; assay: Apoptosis induction in T cell clones by Annexin V binding and permeability to PI; format: cell-based, human; details: 1 μg/ml of ADC, 4S-hour incubation
Procedure: FIG. 21. […] After 48 hr of incubation, Annexin V binding and permeability of PI were used to assess the extent of apoptosis induction.

[8] = test system: Jurkat T cells; assay: Growth inhibition of Jurkat T cells by ADC, 3H-TdR pulse; format: cell-based, human; details: 80 hours incubation + 16 hour 3H-TdR pulse
Procedure: FIG. 9. […] Cells were exposed to the ADCs continuously for a total of 96 hr. Proliferation was assessed by a pulse of H-TdR during the last 16 hours of incubation.
Five thousand Jurkat T cells in 100 μl of medium were seeded in 96-well TC plates. […] After 80 hours of incubation, cellular DNA synthesis was assessed by a 16 hour ^3H-TdR pulse.

[9] = test system: 10 CD30+ T lymphocyte clones; assay: Summary of efficacies of cAC10 ADCs on proliferation of CD30+ T lymphocyte clones; format: cell-based, human; details: FIG. 23 summary
Source text: The following trend was observed. […] These clones have been expanded through multiple rounds of T cell receptor and cytokine stimulation, similar to chronically stimulated effector T cells involved in inflammatory and autoimmune responses.

Chain of CD30 (human) (P28908 19-595): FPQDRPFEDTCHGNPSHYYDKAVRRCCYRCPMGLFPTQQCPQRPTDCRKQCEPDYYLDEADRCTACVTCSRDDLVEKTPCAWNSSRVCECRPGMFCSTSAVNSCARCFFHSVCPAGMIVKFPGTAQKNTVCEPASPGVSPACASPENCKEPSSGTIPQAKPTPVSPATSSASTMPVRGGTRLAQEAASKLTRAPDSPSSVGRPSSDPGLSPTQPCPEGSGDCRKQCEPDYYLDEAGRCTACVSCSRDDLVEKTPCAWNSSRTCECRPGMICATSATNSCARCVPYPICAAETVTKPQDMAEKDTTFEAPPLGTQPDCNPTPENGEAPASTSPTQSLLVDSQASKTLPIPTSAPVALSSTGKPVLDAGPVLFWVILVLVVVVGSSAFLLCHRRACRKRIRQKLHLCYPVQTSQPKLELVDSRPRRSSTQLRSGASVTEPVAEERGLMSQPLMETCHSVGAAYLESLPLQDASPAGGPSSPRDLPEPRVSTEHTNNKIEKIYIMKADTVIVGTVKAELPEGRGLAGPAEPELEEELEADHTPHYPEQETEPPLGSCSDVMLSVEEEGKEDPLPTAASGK

- Jurkat T cell DNA synthesis (3H-TdR), 96 h exposure; concentration needed for growth inhibition (control ADC) [1]: > 0.1 µg/mL
- proliferation of activated Th2 clones 40E10 and 40H7 (3H-TdR); concentration needed for inhibition (control ADC) [1]: > 2 µg/mL
Molecule: non-binding control IgG (cIgG)-vcMMAE (antibody)

- concentration giving the best synergy with AC10 for apoptosis in Jurkat T cells [2]: 0.2 µg/mL
Molecule: anti-CD3 mAb OKT3 (antibody)

Molecule: cAC10-vcAEFP: chimeric AC10 anti-CD30 antibody conjugated to AEFP via valine-citrulline linker
- sensitivity of naïve T lymphocytes to the ADC [3]: less sensitive; also recorded: most refractory

Molecule: AC10: murine anti-CD30 mAb; variable regions SEQ ID NO:2 and 10
- inhibition of Jurkat T cell proliferation by immobilized mAb [4]: active in inhibiting Jurkat T cell proliferation
- inhibition of thymidine incorporation in Jurkat cells [4]: inhibited thymidine incorporation in Jurkat cell dose-dependently
- DNA fragmentation in Jurkat cells [5]: detectable
- apoptosis induction in Jurkat T cells (BrdU and PI staining) ([5]; single mAb cross-linked by goat anti-mouse IgG Fc, compared to medium control): induced apoptosis
- earliest time of detectable apoptosis after incubation [6]: 4 h

- percent of cells apoptotic or dead (Annexin V / PI), clones 40E10 and 40H7, 48 h with 1 µg/ml ADC (control for cAC10-fkMMAE) [1]: 13% and 31%
- proliferation of activated Th2 clones 40E10 and 40H7 (3H-TdR); concentration needed for inhibition (control ADC) [1]: > 0.1 µg/mL
Molecule: cIgG-fkMMAE (antibody)

Molecule: cAC10-fkMMAE: chimeric AC10 anti-CD30 antibody conjugated to MMAE via phenylalanine-lysine linker
- cells either apoptotic or dead [7]: 44-48%

Molecule: cAC10: chimeric AC10 (cAC10) anti-CD30 mAb
- concentration with growth inhibitory effect on Jurkat cells ([4]; soluble, unconjugated (FIG. 2)): higher than 1 μg/ml
- concentrations at which Jurkat cell proliferation was not inhibited ([4]; without secondary cross-linking): below 1 μg/ml

Molecule: cAC10-vcMMAE: chimeric AC10 anti-CD30 antibody conjugated to MMAE via valine-citrulline linker
- IC50 [8]: approximately 0.1 μg/ml
- concentrations that significantly inhibited DNA synthesis [8]: higher than 0.001 μg/ml
- sensitivity of naïve T lymphocytes to the ADC [3]: relatively refractory; also recorded: most refractory
- sensitivity of T lymphocyte clones compared to memory T lymphocytes [9]: eight of the 10 T lymphocyte clones were found to be more sensitive

B1: HeFi-1: murine anti-CD30 mAb; variable regions SEQ ID NO:18 and 26 (antibody, listed as Mus musculus, V domains shown)
VH: EVKLVESGGGLVQPGGSLRLSCATSGFTFSDYYMNWVRQPPGKALEWLGFIRNKANGYTTEFSASVMGRFTISRDDSQSILYLQMNTLRAEDSATYYCARDPPYGNPHYYAMDYWGQGTSVTVSS
VL: DIVLTQSPASLAVSLGQRATISCRASKSVSASGYNYMHWYQQKAGQPPKLLIHLASNLESGVPARFSGSGSGTDFTLNIHPVEEEDASTYYCQHSGELPFTFGSGTKLEIK
- inhibition of Jurkat T cell proliferation by immobilized mAb [4]: active in inhibiting Jurkat T cell proliferation
- inhibition of thymidine incorporation in Jurkat cells [4]: inhibited thymidine incorporation in Jurkat cell dose-dependently
- DNA fragmentation in Jurkat cells [5]: detectable
- earliest time of detectable apoptosis after incubation [6]: 4 h
